The results in this text go back to PubChem BioAssay (NCI).

Experiment in all cases: NCI tumour cell line growth inhibition, 48 h
The subject of assay [1] is UACC-62 melanoma.
For assay [2], the system named is HCT-15 colon.
Assay [3] concerns KM12 colon.
Assay [4] has as its system MALME-3M melanoma.
Assay [5] concerns SNB-75 CNS.
Assay [6] concerns RXF 393 renal.
Assay [7] has as its system ACHN renal.
Assay [8] relates to TK-10 renal.
The test system of assay [9] is A549 NSCLC.
In assay [10] the test system is NCI-H460 lung.

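Grown in 96-well plates, cells were treated for 48 hours with each compound at five concentrations. Insufficient inhibition: endpoint recorded as highest concentration tested. Abbreviation: GI50, concentration required for 50% inhibition of growth. Definition used: TGI = concentration required for complete inhibition of growth.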

On to `O=C(c1ccccc1Nc1ccnc(C(F)(F)F)c1)N1CCN(c2cccc(Cl)c2)CC1`, for which the GI50 in [1] is 10.6 µM; in [2], 24.1 µM; in assay [3] it was 25.7 µM; in assay [4], 23.1 µM; in assay [5], 26 µM; in [6] it was 16.3 µM. Moreover, the GI50 in assay [7] is 22.9 µM; in assay [8] it was 30.8 µM; in [9], 21.2 µM; in assay [10], 17.6 µM. Moreover, the TGI in assay [1] is 25.7 µM; in [2], more than 100 µM; in [3], more than 80.2 µM; in assay [4], 69.3 µM; in assay [5], more than 92.2 µM; in [6], 64.8 µM. The TGI in assay [7] is 86.1 µM; in assay [8], more than 100 µM; in assay [9], more than 100 µM; in [10] it was 44.6 µM.
Take `O=C(N/N=C(/c1nc2ccc(Cl)cc2[nH]c1=O)C(O)c1ccc(Cl)cc1Cl)c1ccncc1` (stereo unspecified): the TGI in assay [1], in assay [2], in assay [3], in assay [4], in [5] and in assay [6] was more than 100 µM in each case. The TGI in assay [7], in assay [8], in assay [9] and in assay [10] was more than 100 µM throughout.
`O=C(Nn1c(-c2ccccc2)nc2ccccc2c1=O)c1ccccn1`: the TGI in assay [1], in assay [3], in assay [4], in assay [5], in assay [6] and in assay [7] was more than 100 µM in each case. The TGI in [8], in assay [9] and in [10] was more than 100 µM throughout.
Regarding `COc1ccc(-c2nn(-c3cccc(Cl)c3)cc2C=C(C#N)C#N)cc1`, the GI50 was 2.39 µM in [1]; 3.24 µM in [2]; 2.83 µM in assay [3]; 2.66 µM in assay [4]; 1.81 µM in assay [5]; 1.85 µM in assay [6]. The GI50 in assay [7] is 2.64 µM; in assay [8] it was 2.6 µM; in assay [10], 2.05 µM. The TGI in assay [1] was 10.6 µM; in [2] it was more than 100 µM; in assay [3] it was 8.86 µM; in [4], 7.76 µM; in [5], 4.51 µM; in assay [6], 4.99 µM. The figures for the TGI in [7], in assay [8] and in [10] were 8.82 µM, 6.48 µM and 5.37 µM, respectively.
Regarding `CN1CCn2c(Br)ccc2C1=O`, the TGI in assay [1], in [2], in [3], in assay [4], in assay [6] and in assay [7] was more than 100 µM each time. Also, the TGI in assay [8], in [9] and in [10] was more than 100 µM each time.
Turning to `COc1ccc(SC2c3cc(OC)c(OC)cc3Oc3nc(N)c(C#N)c(N)c32)cc1` (stereo unspecified), the GI50 in assay [1] is 0.449 µM; in assay [2], 0.973 µM; in assay [3], 1.53 µM; in assay [4], 1.46 µM; in assay [5], 1.31 µM; in assay [6], 0.74 µM. Besides, the GI50 in assay [7] is 1.74 µM; in assay [8] it was 1.63 µM; in assay [10], 1.66 µM. For the same molecule, the TGI amounted to 1.74 µM in [1]; 2.23 µM in assay [2]; 3.05 µM in assay [3]; 2.89 µM in [4]; 2.62 µM in assay [5]; 2.01 µM in assay [6]. In addition, the values for the TGI in assay [7], in assay [8] and in assay [10] were 3.12 µM, 3.01 µM and 4.38 µM, respectively.
For the molecule `CN(C)CCCNc1nn2c(=O)c3ccccc3nc2c2ccccc12`, the GI50 in assay [2] is 7.05 µM; in assay [3] it was 11.2 µM; in assay [4], 11.8 µM; in [5], 2.73 µM; in assay [6], 14.2 µM; in [7] it was 3.75 µM. For the same molecule, the values for the GI50 in [8], in [9] and in assay [10] were 11.1 µM, 5.64 µM and 3.35 µM, respectively. The TGI was determined as 30.2 µM in assay [2]; 27.2 µM in assay [3]; 29.8 µM in [4]; 51.1 µM in assay [5]; 30.6 µM in assay [6]; 15 µM in [7]. In addition, the TGI in assay [8] came out at 45.4 µM; in [9] it was 25.2 µM; in assay [10], 13.6 µM.
As for `CCCCc1c2c(nc3c1CCc1cc4c(nc1-3)-c1nc3c(c(CCCC)c1CC4)CCC/C3=C\c1ccccc1)/C(=C/c1ccccc1)CCC2`, the TGI in assay [1] is more than 100 µM; in [2], more than 100 µM; in assay [3], more than 100 µM; in assay [4], more than 100 µM; in assay [6] it was 65.4 µM; in assay [8], more than 100 µM. In addition, the TGI in assay [9] and in assay [10] was more than 100 µM in each case.
As to `Cc1cccc(C(C)(C)C)c1NC(=O)/C(Cc1nc2ccc([N+](=O)[O-])cc2[nH]c1=O)=N/NC(=O)C[N+](C)(C)C`, the TGI in assay [1], in [2], in assay [3], in assay [4], in assay [5] and in [7] was more than 100 µM each time. Moreover, the TGI in assay [9] and in assay [10] was more than 100 µM in each case.
Take `N#Cc1cccc(NC(=O)c2ccc(C(=O)O)c(C(=O)c3ccc(C(=O)O)c(C(=O)Nc4cccc(C#N)c4)c3)c2)c1`: the TGI in assay [1], in assay [2], in assay [3], in assay [4], in [5] and in [6] was more than 100 µM each time. The TGI in [8], in assay [9] and in assay [10] was more than 100 µM throughout.
Turning to `O=P(Oc1ccc(Cl)cc1)(Oc1ccc(Cl)cc1)N1CC1`, the TGI in assay [1], in [2], in assay [3], in [4], in assay [5] and in assay [7] was more than 10 µM throughout. In addition, the TGI in [8], in [9] and in assay [10] was more than 10 µM throughout.
